Series [1] can be described thus: MTT cell viability assay in normal cells. Type of series: cell-based. Conditions: human, MCF-10A normal mammary epithelial cells. The protocol:
To check the safety of prepared compounds and evaluate their selectivity towards tumor cells over normal ones, the toxicity of compounds 7a-x were evaluated by 3-(4,5-Dimethylthiazole-2-yl)-2,5-diphenyltetrazol (MTT) assay on the normal human mammary epithelial cell line (MCF-10 A). The human mammary epithelial cell lines were incubated for four days with a concentration of 50 µM of compounds 7a-x.
MTT assay was done to determine the effect of the synthesized compounds on the viability of mammary epithelial cells (MCF-10 A). Compounds 7a-x were incubated with MCF-10 A cells for 4 days at 50 µM concentration, and the viability of cells was determined. See Appendix A.
MTT assay was carried out to study the effect of compounds on mammary epithelial cells (MCF-10A).^7, ^8 The medium in which cells were propagated contained Dulbecco's modified Eagle's medium (DMEM)/ Ham's F-12 medium (1:1) supplemented with epidermal growth factor (20 ng/mL), hydrocortisone (500 ng/mL), insulin (10 μg/mL), 2 mM glutamine and 10% foetal calf serum. After every 2-3 days, the cells were passaged using trypsin ethylenediamine tetra acetic acid (EDTA). The cells were seeded at a density of 10^4 cells mL^-1 in flat-bottomed culture plates containing 96 wells each. After 24 h, medium was removed from the plates and the compounds in (in 0.1% DMSO) were added (in 200 μL medium to yield a final concentration of 0.1% v/v) to the wells of plates. A single compound was designated with four wells followed by incubation of plates for 96h at 37°C. After incubation, medium was removed completely from the plates followed by addition of MTT (0.4 mg/mL in medium) to each well and subsequent incubation of plates for 3h. MTT (along with the medium) was removed and DMSO (150μL) was added to each well of the culture plates, followed by vortexing and subsequent measurement of absorbance (at 540 nm) using microplate reader.
(Formazan colour is commonly taken as a measure of viable cells.)

The test system of series [2] is T-47D. The experiment in a line: NCI one-dose SRB anti-proliferative screen. The note with it: Homo sapiens, T47D, read-out: Cell growth inhibition %. The series is classed as cell-based, human. As for the experimental part: (§1) The twenty-four synthesized compounds were submitted to the National Cancer Institute (NCI), USA. Eighteen hybrids 7a-h, 7k-r, 7u, and 7v were selected by NCI for one-dose assessment of their anti-proliferative activities at 10 µM dose by Sulforhodamine B colorimetric assay. The assessment was performed in 60 cell lines derived from nine tumor subpanels, comprising lung, leukemia, melanoma, colon, renal, CNS, prostate, breast, and ovarian cancer cell lines.
(§2) The methodology of the NCI anti-proliferative screening has been described in details elsewhere (http://www.dtp.nci.nih.gov).

For series [3], the system named is K-562. The experiment in a line: NCI one-dose SRB anti-proliferative screen. The series is classed as cell-based, human. The note with it: Homo sapiens, K562, read-out: Cell growth inhibition %. The protocol:
as §1, §2

Series [4] has as its system HCT-116. The experiment in a line: NCI one-dose SRB anti-proliferative screen. Type of series: cell-based, human. Conditions: for inhibition at 10 µM: Homo sapiens, read-out: Cell growth inhibition %. The protocol: as §1, §2
The test system of series [5] is RXF 393. Briefly: NCI one-dose SRB anti-proliferative screen. The series is classed as cell-based, human. Conditions: Homo sapiens, read-out: Cell growth inhibition %. As for the experimental part: as §1, §2
Series [6] relates to MOLT-4. The experiment in a line: NCI one-dose SRB anti-proliferative screen. The note with it: Homo sapiens, read-out: Cell growth inhibition %. The series is classed as cell-based, human. The protocol:
as §1, §2

Series [7] deals with MCF-7. Briefly: Propidium iodide anti-proliferative assay. Type of series: cell-based. The note with it: Homo sapiens, MCF7; 48 h incubation; read-out: IC50 ± SEM MCF-7. The protocol:
(§3) The propidium iodide (PI) tests^31, 32 were further used for assessment of the IC50 of all synthesized compounds and compared to Doxorubicin as a positive control against four cancer cell lines; pancreatic cancer cell line (Panc-1), epithelial line cancer cell (A-549), breast cancer cell line (MCF-7), and colon cancer cell line (HT-29).
(§4) Using the propidium iodide fluorescence assay with doxorubicin as the reference drug, IC50 of the 24 compounds 7a-x, was carried out according to a previously reported procedure^31, 32 against a panel of four human cancer cell lines; epithelial cancer cell line (A-549), breast cancer cell line (MCF-7), colon cancer cell line (HT-29) and pancreas cancer cell line (Panc-1). Compounds 7a-x were incubated with cancer cells for 2 days at different concentrations. See Appendix A.
(§5) To explore the antiproliferative potential of compounds propidium iodide fluorescence assay was performed using different cell lines (melanoma cancer cell line LOX-IMVI, pancreatic cancer cell line (Panc-1), epithelial line cancer cell (A-549), breast cancer cell line (MCF-7), and colon cancer cell line (HT-29). To calculate the total nuclear DNA, a fluorescent dye (propidium iodide, PI) is used which can attach to the DNA,^9,^10 thus offering a quick and precise technique. PI cannot pass through the cell membrane and its signal intensity can be considered as directly proportional to the quantity of cellular DNA. Cells whose cell membranes are damaged or have changed permeability are counted as dead ones. The assay was performed by seeding the cells of different cancer cell lines at a density of 3000-7500 cells/well (in 200µl medium) in culture plates followed by incubation for 24h at 37 °C in humidified 5% CO2/95% air atmospheric conditions. The medium was removed; the compounds were added to the plates at 10 µM concentrations (in 0.1% DMSO) in triplicates, followed by incubation for 48 h. DMSO (0.1%) was used as control. After incubation, medium was removed followed by the addition of PI (25 µl, 50µg/mL in water/medium) to each well of the plates. At -80 °C, the plates were allowed to freeze for 24 h, followed by thawing at 25 °C. A fluorometer (Polar-Star BMG Tech) was used to record the readings at excitation and emission wavelengths of 530 and 620 nm for each well. The percentage cytotoxicity of compounds was calculated using the following formula:
(§6) Where ATC= Absorbance of treated cells and AC= Absorbance of control. […]

The subject of series [8] is HT-29. Briefly: Propidium iodide anti-proliferative assay. Type of series: cell-based. The note with it: Homo sapiens, 48 h incubation, read-out: IC50 ± SEM HT-29. The protocol:
as §3, §4, §5, §6

Series [9] relates to A-549. Briefly: Propidium iodide anti-proliferative assay. Conditions: Homo sapiens, A549; 48 h incubation; read-out: IC50 ± SEM A-549. The series is classed as cell-based. As for the experimental part: as §3, §4, §5, §6
For series [10], the system named is Panc-1. Briefly: Propidium iodide anti-proliferative assay. The note with it: Homo sapiens, 48 h incubation, read-out: IC50 ± SEM Panc-1. The series is classed as cell-based. The protocol:
as §3, §4, §5, §6

[11] abbreviates: T-47D, Breast cancer, NCI one dose.
Where [12] appears, read: HCT-116, Colon cancer, NCI one dose.
Setting [13] is: RXF 393, Renal cancer, NCI one dose.
Where [14] appears, read: T-47D (Breast Cancer), NCI one dose 10 µM.
The mark [15] stands for this setting: K-562 (Leukemia), NCI one dose 10 µM.
Where [16] appears, read: HCT-116 (Colon Cancer), NCI one dose 10 µM.
Setting [17] is: RXF 393 (Renal Cancer), NCI one dose 10 µM.
[18] abbreviates: MOLT-4 (Leukemia), NCI one dose 10 µM.

Molecules are shown by their SMILES. Where two headings read alike, the source gives them in different places.

`COc1ccc(-c2nc3cc(-c4nnc(SCC(=O)Nc5ccc(C(=O)/C=C/c6cc(OC)c(OC)c(OC)c6)cc5)o4)ccc3[nH]2)cc1` [Compound 7o, 2-{5-[2-(4-Methoxyphenyl)-1 H-benzo[d]imidazol-5-yl]-1,3,4-oxadiazol-2-ylthio}-N-{4-[(E)-3-(3,4,5-trimethoxyphenyl)acryloyl]phenyl}acetamide] gave a viability at 96 h, 50 µM in [1] of 89%. The inhibition at 10 µM was 0% in series [2] (setting [11]); 8.26% in series [3] (K-562, Leukemia, NCI one dose); 0% in [4] (setting [12]); 0% in [5] (setting [13]); 9% in series [6] (MOLT-4, Leukemia, NCI one dose). Further, in series [4] (HCT-116 (Colon Cancer), 10 µM one dose), the “Growth Percent” value was 50.04%. The IC50 was determined as 7.1 ± 0.6 µM in [7], 8.6 ± 0.4 µM in series [8], 7.6 ± 0.3 µM in series [9] and 8.2 ± 1.2 µM in series [10].
As for `COc1ccc(/C=C/C(=O)c2ccc(NC(=O)CSc3nnc(-c4ccc5[nH]c(-c6ccc(OC)c(OC)c6)nc5c4)o3)cc2)cc1` [Compound 7r, 2-{5-[2-(3,4-Dimethoxyphenyl)-1 H-benzo[d]imidazol-5-yl]-1,3,4-oxadiazol-2-ylthio}-N-{4-[(E)-3-(4-methoxyphenyl)acryloyl]phenyl}acetamide], in series [1], the viability at 96 h, 50 µM is 91%. For the same compound, the inhibition at 10 µM in [2] (setting [14]) is 28.9%; in series [3] (setting [15]) it was 21.9%; in series [4] (setting [16]), 3.79%; in series [5] (setting [17]) it was 0%; in series [6] (setting [18]), 34.5%. Also, the IC50 in series [7] was found to be 3.1 ± 0.5 µM; in series [8], 4.2 ± 0.5 µM; in series [9], 3.6 ± 0.5 µM; in series [10] it was 3.9 ± 0.5 µM.
Consider `O=C(CSc1nnc(-c2ccc3[nH]c(-c4ccccc4)nc3c2)o1)Nc1ccc(C(=O)/C=C/c2ccc(Cl)cc2)cc1` [Compound 7b, 2-{5-[2-Phenyl-1 H-benzo[d]imidazol-5-yl]-1,3,4-oxadiazol-2-ylthio}-N-{4-[(E)-3-(4-chlorophenyl)acryloyl]phenyl}acetamide], for which, in series [1], the viability at 96 h, 50 µM was 88%. Moreover, the inhibition at 10 µM in [2] (setting [11]) is 12.3%; in series [3] (K-562, Leukemia, NCI one dose), 0%; in [4] (setting [12]), 8.66%; in [5] (setting [13]), 0%; in series [6] (MOLT-4, Leukemia, NCI one dose), 6.55%. Besides, the IC50 in series [7] worked out at 7.9 ± 0.8 µM; in series [8], 9.1 ± 1.1 µM; in series [9], 8.2 ± 0.9 µM; in series [10], 8.4 ± 1 µM.
As for `COc1cc(-c2nc3cc(-c4nnc(SCC(=O)Nc5ccc(C(=O)/C=C/c6ccccc6)cc5)o4)ccc3[nH]2)cc(OC)c1OC` [Compound 7u, 2-{5-[2-(3,4,5-Trimethoxyphenyl)-1 H-benzo[d]imidazol-5-yl]-1,3,4-oxadiazol-2-ylthio}-N-{4-[(E)-3-phenylacryloyl]phenyl}acetamide], the viability at 96 h, 50 µM in series [1] is 90%. Moreover, the inhibition at 10 µM in [2] (setting [14]) was 14.8%; in series [3] (setting [15]) it was 14.9%; in [4] (setting [16]) it was 26.5%; in [5] (setting [17]), 0%; in series [6] (setting [18]), 21.8%. Also, the IC50 worked out at 2.1 ± 0.08 µM in series [7], 2.7 ± 0.5 µM in series [8], 2.25 ± 0.5 µM in series [9] and 2.4 ± 0.2 µM in series [10].
With `O=C(CSc1nnc(-c2ccc3[nH]c(-c4ccc(Cl)cc4)nc3c2)o1)Nc1ccc(C(=O)/C=C/c2ccccc2)cc1` [Compound 7f, 2-{5-[2-(4-Chlorophenyl)-1 H-benzo[d]imidazol-5-yl]-1,3,4-oxadiazol-2-ylthio}-N-{4-[(E)-3-phenylacryloyl]phenyl}acetamide], in [1], the viability at 96 h, 50 µM amounted to 87%. In addition, the inhibition at 10 µM was 0% in series [2] (setting [14]); 8.26% in series [3] (setting [15]); 0% in series [4] (setting [16]); 0% in series [5] (setting [17]); 9% in series [6] (setting [18]). Also, the IC50 in series [7] was 2.05 ± 0.5 µM; in series [8], 2.7 ± 0.5 µM; in [9] it was 2.15 ± 0.5 µM; in series [10] it was 2.4 ± 0.6 µM.
As for `COc1ccc(/C=C/C(=O)c2ccc(NC(=O)CSc3nnc(-c4ccc5[nH]c(-c6ccccc6)nc5c4)o3)cc2)cc1OC` [Compound 7d, 2-{5-[2-Phenyl-1 H-benzo[d]imidazol-5-yl]-1,3,4-oxadiazol-2-ylthio}-N-{4-[(E)-3-(3,4-dimethoxyphenyl)acryloyl]phenyl}acetamide], the viability at 96 h, 50 µM in series [1] stood at 89%. Further, the inhibition at 10 µM in series [2] (setting [11]) worked out at 2.51%; in series [3] (K-562, Leukemia, NCI one dose) it was 0%; in series [4] (setting [12]), 6.47%; in series [5] (setting [13]), 0%; in series [6] (MOLT-4, Leukemia, NCI one dose) it was 7.24%. Further, the IC50 in series [7] came to 8.9 ± 1.1 µM; in series [8], 11.1 ± 1.4 µM; in [9] it was 9.7 ± 1.1 µM; in series [10], 10.3 ± 1.3 µM.
As for `O=C(CSc1nnc(-c2ccc3[nH]c(-c4ccccc4)nc3c2)o1)Nc1ccc(C(=O)/C=C/c2ccccc2)cc1` [Compound 7a, 2-{5-[2-Phenyl-1 H-benzo[d]imidazol-5-yl]-1,3,4-oxadiazol-2-ylthio}-N-{4-[(E)-3-phenylacryloyl]phenyl}acetamide], the viability at 96 h, 50 µM in series [1] was 91%. In addition, the inhibition at 10 µM in series [2] (setting [11]) turned out to be 1.45%; in series [3] (K-562, Leukemia, NCI one dose), 0%; in series [4] (setting [12]), 3.03%; in series [5] (setting [13]), 0%; in series [6] (MOLT-4, Leukemia, NCI one dose), 6.84%. Further, the IC50 came to 9.2 ± 1.1 µM in [7], 11.2 ± 1.4 µM in series [8], 9.9 ± 1.1 µM in series [9] and 10.4 ± 1.3 µM in [10].

By viability is commonly meant the share of living cells, or the viability signal relative to a control. For orientation: inhibition means the drop in the measured response relative to a control, in per cent. In general, IC50 refers to the point on the concentration scale where inhibition reaches its midpoint.

Values taken from article PMC10504751, “Chalcone/1,3,4-Oxadiazole/Benzimidazole hybrids as novel anti-proliferative agents inducing apoptosis and inhibiting EGFR & BRAFV^600E” (BMC Chemistry, 2023).
